In EP2927230A1, “PENTAMETHINIUM SALTS WITH AN EXPANDED QUINOXALINE UNIT AND ITS USE IN ANTICANCER THERAPY” (University of Chemistry and Technology - Prague, priority 2014, dated 2015):

Key:
[1] = test system: MDA-MB-231 (human breast carcinoma); test: Cytotoxicity (MTT) assay; assay type: cell-based; details: MDA-MB-231 cell line
Description: (§1) Cells were seeded into 96-well microtitre plates to the expected target cell density (2,500-30,000 cells-well^-1, according to the particular cell line). The inoculant were pre-incubated to stabilize for 24 h (at 37°C and 5 % CO^2). Fourfold dilutions (0-200 µmol·L^-1; in triplicates) of the tested compound 1 were added to the microtitre plate wells at time zero. The cells were treated with compound 1 for 72 h under standard cultivation conditions. Then, the cells were assayed using MTT for 4 h. Produced formazan, arisen by mitochondrial reduction of MTT, was dissolved in 10 % aqueous solution of sodium dodecyl sulphate (pH 5.5; 100 µL·well^-1, hole diameter is 6.54 mm) followed by overnight incubation. […] The absorption of the produced formazan was measured at 540 nm using Labsystem iEMS Reader MF. The tumor cell inhibitory concentration (IC) of compound 1 was calculated using the following equation: IC = (ODdrug / mean ODcontrol) · 100 %. The IC50 (Table 1) value (drug concentration being lethal for 50 % of the cells) was calculated from appropriate dose-response curves. (Noskova, V.; Dz ? ubak, P.; Kuzmina, G.; Ludkova, A.; Stehlik, D.; Trojanec, R.; Jano ? akova, A.; Kor ? inkova, G.; Mihal, V.; Hajduch, M. Neoplasma 2002, 49, 418-425. 38. Hajduch, M.; Mihal, V.; Minar ? ik, J.; Faber, E.; ? afarova, M.; Weigl, E.; Antalek, P. Cytotechnology 1996, 19, 243-245)

[2] = test system: PE/CA-PJ34 (human basaloid squamous cell carcinoma); test: Cytotoxicity (MTT) assay; assay type: cell-based; details: PE/CA-PJ34 cell line
Description: as §1

[3] = test system: U-2 OS (human osteosarcoma); test: Cytotoxicity (MTT) assay; assay type: cell-based; details: U-2 OS cell line
Description: as §1

[4] = test system: MiaPaCa-2 (human pancreatic carcinoma); test: Cytotoxicity (MTT) assay; assay type: cell-based; details: MiaPaCa-2 cell line
Description: as §1

[5] = test system: 4T1(mouse mammary gland carcinoma); test: Cytotoxicity (MTT) assay; assay type: cell-based; details: 4T1 cell line
Description: as §1

[6] = test system: MCF-7 (breast cancer cells); test: Cytotoxicity (MTT) assay; assay type: cell-based; details: MCF-7 cell line
Description: as §1

[7] = test system: LNCaP (human prostate carcinoma); test: Cytotoxicity (MTT) assay; assay type: cell-based; details: LNCaP cell line
Description: as §1

[8] = test system: human breast carcinoma (MDA-MB-231); test: Effect on tumor growth in vivo (subcutaneous xenograft); set-up: species or system Nu/nu mice
Description: Effect of salt 1 on tumor growth in vivo. […] The control group (◆) consisted of untreated mice with a tumor.

CCCN1C(=C2C=C(C=Cc3sc4ccccc4[n+]3CCC)c3nc4ccccc4nc32)Sc2ccccc21 [compound 1]
cytotoxicity [1]: high cytotoxicity | cytotoxicity [2]: high cytotoxicity | cytotoxicity [3]: high cytotoxicity | cytotoxicity [4]: high cytotoxicity | cytotoxicity [5]: high cytotoxicity | cytotoxicity [6]: high cytotoxicity | cytotoxicity [7]: high cytotoxicity | tumor growth ([8]; Nu/nu mice with MDA-MB-231, after application, for the duration of the experiment (more than 40 days)): practically stopped | anticancer effect ([8]; Nu/nu mice with human breast carcinoma (MDA-MB-231)): high anticancer effect | differences in the tumor volume of control mice versus treated mice ([8]; intravenously, 5 mgkg-1, twice a week, * p<0.05, ** p<0.01, n=5 mice per group): Statistically significant differences
